Values after ≈ are worked out from the molar mass of the structure shown. “Also recorded” adds a separate entry of the source.
Key:
[1] = tested on: A. actinomycetemcomitans; conditions: planktonic form; cited from earlier work
[2] = tested on: A. actinomycetemcomitans biofilms; test: Activity against A. actinomycetemcomitans biofilms (XTT metabolic assay, crystal violet, plating); assay type: cell-based, Aggregatibacter actinomycetemcomitans
Experimental: Aggregatibacter actinomycetemcomitans 1005 (Aa) (obtained from Dr. Helen Schreiner, New Jersey Dental School) were cultured on TSB agar (4% trypticase soy broth, 0.6% yeast extract, 0.8% dextrose, 0.4% NaHCO3, 75 μg/mL bactracin, 5 μg/mL vancomycin) at 37° C., 10% CO2. Single colonies were inoculated to TSB broth in 75-cm^2 tissue culture flasks. Biofilm was harvest upon the 90% confluence and resuspended into 1 mL PBS. Resuspension was vortexed vigorously for 1 minute and allowed to settle for 10 minutes. The supernatant was then diluted to 2.5×10^7 before seeded to 96-well plates to obtain even biofilms. Porphyromonas gingivalis W381 (obtained from Dr. Christopher Cutler, Stony Brook University Dental School) were cultured on TSB-blood agar (3% trypticase soy broth, 5% defibrinated sheep blood, 5 hemin, 0.5 μg/mL menadione, and 0.2 mg/mL KNO3) in an anaerobic chamber (80% N2, 10% H2, and 10% CO2) at 37° C. For biofilm formation, the same protocol as Aa under anaerobic condition was used.
Aa biofilms were cultured into 96-well plates (tissue culture treated, Falcon) for 18 hours. Serial dilutions of the mimetic compounds were made in 100 μL RPMI-1640 without Phenol red and added directly to the wells. Plates were cultured at 37° C., 10% CO2 for 24 hours. Medium was removed, and cell viability was evaluated by XTT assay using the In Vitro Toxicology Assay Kit (Sigma) according to the manufacturer's protocol. Metabolic activity was measured by reading in a plate-reader at 450 nm. […] Colonies were counted after 72 hours. […]
To quantify the activity of AMP mimetics on biofilms, the activity against two bacterial species associated with periodontitis, A. actinomycetemcomitans and P. gingivalis was measured under conditions that lead to biofilm formation (Kaplan et al., J. Bacteriol. 2003, 185, 1399-1404; Davey, Periodontol 2000, 2006, 42, 27-35). […] After 24 hours, the growth medium was replaced with RPMI (without Phenol Red) and an XTT assay was carried out to quantify the metabolic activity. Metabolic activity was quantified by measuring the OD at 450 nm and 600 nm. […]

[3] = tested on: IL-8 secretion, THP-1 cells; test: IL-1β-induced IL-8 secretion (ELISA) in THP-1 cells; assay type: cell-based, Human
Experimental: (§1) The oral keratinocyte cell line OKF6/TERT (obtained from Dr. James Rhinewald, Harvard University) was cultured in Keratinocyte growth medium (Lonza) with hEGF, BPE (Bovine Pituitary Extract). Cells were subcultured in 6-well dishes 18 hours before stimulation. Cells were treated with 2 μg/mL, 5 μg/mL mPE with and without IL-1β stimulation (100 ng/mL, […]) for 2 hours, 4 hours and 18 hours. THP-1 cells were grown in suspension at RPMI 1640 with 10% FBS, and stimulated similarly.
(§2) Growth medium from stimulated cultures was collected either by aspiration (from keratinocytes) or after centrifugation at 1000 rpm for 15 minutes (for THP-1 cells). Cell debris was removed by centrifugation at 8,000 g (12,000 rpm) for 10 minutes at 4° C. To quantify IL-8 levels, the Human IL-8 Single Analyte ELISArray Kit (SA bioscience, MD) was used according to the manufacturer's protocol. The Cellular Activation of Signaling ELISA kit IKBα (SA bioscience, MD) was used to quantify both phosphorylated and whole IkBα levels in OKF6/TERT cells grown in a 96-well plate. All assays were performed in duplicate.
(§3) To examine the effect of mPE on the inflammatory response, gingival epithelial cells (the OKF6/TERT cell line) and the monocytic cell line, THP-1, were treated with rhIL-1β (100 ng/ml) in the presence of increasing concentrations (0, 2, or 5 ng/ml) of mPE. Secreted levels of IL-8 were measured by ELISA. […]

[4] = tested on: IL-8 secretion, OKF6/TERT cell line; test: IL-1β-induced IL-8 secretion (ELISA) in gingival epithelial cells; assay type: cell-based, Human
Experimental: as §1, §2, §3

[5] = tested on: LPS-mediated TNF-α production, macrophage cell line; conditions: macrophage cells; cited from earlier work
[6] = tested on: phosphorylated IκB / NF-κB activation; test: IκB phosphorylation (CASE ELISA) in OKF6/TERT cells; assay type: cell-based, Human; conditions: 100 ng/ml IL-1β, 2 or 4 hours, 0, 2 or 5 μg/ml mPE, FIG. 4B
Experimental: Growth medium from stimulated cultures was collected either by aspiration (from keratinocytes) or after centrifugation at 1000 rpm for 15 minutes (for THP-1 cells). Cell debris was removed by centrifugation at 8,000 g (12,000 rpm) for 10 minutes at 4° C. To quantify IL-8 levels, the Human IL-8 Single Analyte ELISArray Kit (SA bioscience, MD) was used according to the manufacturer's protocol. The Cellular Activation of Signaling ELISA kit IKBα (SA bioscience, MD) was used to quantify both phosphorylated and whole IkBα levels in OKF6/TERT cells grown in a 96-well plate. All assays were performed in duplicate. OKF6/TERT cells were treated with mPE as above in the presence or absence of IL-1β. Total mRNA was isolated and IL-8 and hBD-2 mRNA levels were quantified by QPCR normalized to β2-Microglobulin. Levels are shown relative to the no-mPE sample for each group. The experiment was carried out in triplicate; error bars represent±SD. […] To determine whether this was due to an inhibition of NF-κB activation, gingival epithelial cells were treated with mPE in the presence or absence of 100 ng/ml IL-1β, and IκB phosphorylation levels were quantified using the CASE assay (SA Biosciences, MD), and quantified relative to total IκB levels). In particular, OKF6/TERT cells were grown in 96-well plates, treated with 100 ng/ml IL-1β for 2 or 4 hours in the presence of 0, 2 or 5 μg/ml mPE. […]

[7] = tested on: P. gingivalis; conditions: planktonic form; cited from earlier work
[8] = tested on: oral pathogens, biofilm cultures of Streptococcus mutans; conditions: Gram-positive and -negative, incl. S. mutans biofilm cultures; cited from earlier work
[9] = tested on: IL-8 mRNA; test: IL-8 mRNA levels by QPCR in OKF6/TERT cells; assay type: cell-based, Human; conditions: IL-1β-treated cells, normalized to β2-Microglobulin, FIG. 4A
Experimental: Total cellular RNA was isolated from cultures using QIAshredder and RNeasy Mini Kit (Qiagen Valencia, Calif.). Total RNA was reversed transcribed using Superscript II reverse transcriptase kit as described by the manufacturer (Invitrogen, CA). Quantitative PCR (qPCR) was carried out using SYBR Green in a MyiQ iCycler (Bio-Rad). A total of 1 μl of cDNA (described above) was analyzed using final concentration of 100 nM of primers, 2×SYBR Green PCR Master Mix (Applied Biosystems, Foster City, Calif., USA) in volume of 20 μl. Prmer sequences were:
Amplification was carried out for 50 cycles (95° C., 15 seconds; 60° C., 60 seconds). The relative for mRNA expression in each sample was calculated based on its Ct value comparison to Ct of a housekeeping gene. […]
To examine the effect of mPE on the inflammatory response, gingival epithelial cells (the OKF6/TERT cell line) and the monocytic cell line, THP-1, were treated with rhIL-1β (100 ng/ml) in the presence of increasing concentrations (0, 2, or 5 ng/ml) of mPE. Secreted levels of IL-8 were measured by ELISA. […] This was not a result of cytotoxicity, as cell viability (as measured by XTT assay and trypan blue exclusion) was no lower than 93-96% at the highest concentration of mPE. To determine whether this was due to an effect on IL-8 secretion or on gene regulation, mRNA was isolated from treated cells IL-8 mRNA levels were quantified by QPCR. […]

[10] = tested on: OKF6/TERT and THP-1 cells; test: Cell viability by XTT assay and trypan blue exclusion; assay type: cell-based, Human; conditions: highest concentration of mPE
Experimental: To examine the effect of mPE on the inflammatory response, gingival epithelial cells (the OKF6/TERT cell line) and the monocytic cell line, THP-1, were treated with rhIL-1β (100 ng/ml) in the presence of increasing concentrations (0, 2, or 5 ng/ml) of mPE. Secreted levels of IL-8 were measured by ELISA. […] The experiment was carried out in quadruplicate; error bars represent±SD. The inhibition by mPE was significant at both concentrations with p<0.01. […] This was not a result of cytotoxicity, as cell viability (as measured by XTT assay and trypan blue exclusion) was no lower than 93-96% at the highest concentration of mPE. To determine whether this was due to an effect on IL-8 secretion or on gene regulation, mRNA was isolated from treated cells IL-8 mRNA levels were quantified by QPCR.

[11] = tested on: P. gingivalis biofilms; test: Activity against P. gingivalis biofilms (XTT metabolic assay, crystal violet); assay type: cell-based, Porphyromonas gingivalis
Experimental: Aggregatibacter actinomycetemcomitans 1005 (Aa) (obtained from Dr. Helen Schreiner, New Jersey Dental School) were cultured on TSB agar (4% trypticase soy broth, 0.6% yeast extract, 0.8% dextrose, 0.4% NaHCO3, 75 μg/mL bactracin, 5 μg/mL vancomycin) at 37° C., 10% CO2. Single colonies were inoculated to TSB broth in 75-cm^2 tissue culture flasks. Biofilm was harvest upon the 90% confluence and resuspended into 1 mL PBS. Resuspension was vortexed vigorously for 1 minute and allowed to settle for 10 minutes. The supernatant was then diluted to 2.5×10^7 before seeded to 96-well plates to obtain even biofilms. […]
To test the activity against P. gingivalis biofilms, strain 381 was grown in 96-well plates under conditions (i.e., grown in a 96-well plate for 21 days in an anaerobic chamber in Brain Heart Infusion (BHI) medium) that favor biofilm formation (Davey, Periodontol 2000, 2006, 42, 27-35). mPE was added in serial dilutions, incubated anaerobically for 24 hours, and the medium was replaced with XTT in RPMI. Metabolic activity was quantified as above. To confirm the ability of XTT to measure activity in the biofilm, the growth medium was removed, and biomass was quantified by crystal violet staining, followed by destaining and quantification of the optical density. Staining was quantified by reading A600. […]

[12] = rhIL-1β 100 ng/ml, mPE 0, 2, or 5 ng/ml as printed, FIG. 3

Which results are given for `NCCc1cc(Br)cc(C#Cc2cccc(C#Cc3cc(Br)cc(CCN)c3)c2)c1` [mPE]?
MIC [1]: 0.4 µg/mL (≈ 0.766 µM); reduction of metabolic activity (XTT) ([2]; 2-hour exposure, 16 ng/ml, FIG. 1C): 60%; antimicrobial activity against biofilms (XTT metabolic activity) ([2]; 24 hours, FIG. 1A): potent antimicrobial activity; reduction in viable colonies (plating) and biomass (crystal violet) ([2]; FIG. 1B): reduction in viable colonies paralleled the results from the XTT assay; concentration sufficient to inhibit IL-1β-induced secretion of IL-8 ([3]; THP-1 cells): 2 µg/mL; inhibition of IL-8 secretion [3, 12]: dose-dependent inhibition; concentration sufficient to inhibit IL-1β-induced secretion of IL-8 ([4]; gingival epithelial cells): 2 µg/mL; inhibition of IL-8 secretion [4, 12]: dose-dependent inhibition; LPS-mediated TNF-α production [5]: inhibited; IL-1β-stimulated phosphorylated IκB levels / total IκB [6]: reduction in activation of NF-κB; also recorded: rapid, dose-dependent reduction; MIC [7]: 2.5 µg/mL (≈ 4.79 µM); activity against oral pathogens [8]: active; IL-8 mRNA levels [9]: inhibitory effect is at the level of gene expression; cell viability [10]: 93-96%; activity against biofilm cultures [11]: potent activity; concentration at which biofilm and metabolic activity decrease to a baseline ([11]; 24 hours anaerobic, XTT and crystal violet, FIG. 2): 4 to 8 µg/mL
